The results in this text go back to patent US20250339443A1, “METHOD FOR TREATING OR PREVENTING CALCIUM RELEASE-ACTIVATED CALCIUM CHANNEL OR DISCOIDIN DOMAIN RECEPTOR 2 RELATED DISORDERS OR CONDITIONS” (LumiSTAR Biotechnology, Inc., priority 2023, published 2025).

Test [1] concerns the target T1, CRAC channel (Homo sapiens, UniProt Q96D31). Briefly: CRAC channel activity / SOCE in HCF. As to conditions: 10 μM pretreatment 45 min. In kind it is cell-based. Set-up: endogenous in cells. As to the method: (§1) Cells were co-treated with various compounds (10 μM) and TGF-β1 for 24 hours. Following this, cell lysates were harvested, and the protein expression was assessed by Western blot analysis. FIG. 3D depicts the examination of TGF-β1-induced fibronectin deposition and α-SMA expression in HCF treated with 10 μM of DMSO, BTP2, WRG-28, or Av through immunofluorescence staining. The images were captured using a confocal microscope, the Olympus FV-1000. FIG. 3E, FIG. 3F, and FIG. 3G illustrate the assessment of CRAC channel activity in HCF, MRC5, and rat HSC-T6. These cells were pretreated with 10 μM of BTP2, WRG-28, or Av for 45 min. The evaluation included measuring the second peak of each calcium wave and the rate of entry. Each bar within the figure represents the mean value derived from 77 to 91 cells for HCF, 31 to 49 cells for MRC5, and 43 to 94 cells for HSC-T6. In all the graphs, *, **, and *** denote p-values of <0.05, 0.01, and 0.001, respectively.
(§2) Cells cultured on a glass-bottom 96 well plate for 48 hours were treated with different compounds (10 μM) and Fura 2-AM (1 μM) simultaneously in a solution containing 145 mM NaCl, 2.8 mM KCl, 2 mM CaCl2, 2 mM MgCl2, 10 mM D-glucose, 10 mM HEPES, pH 7.4 for 40 minutes in the dark. […] All the images were analyzed by using IGOR Pro software. […]

For test [2], the target named is T1, CRAC channel. Description: CRAC channel activity / SOCE in MRC5. In kind it is cell-based. Further details: endogenous in cells. Conditions: MRC5, 10 μM pretreatment 45 min. As to the method: as §1, §2
Test [3] has as its system BLM-induced pulmonary fibrosis. Description: Bleomycin-induced lung fibrosis mouse model. Conditions: 14 days, Nintedanib 60 mg/kg/day, WRG-28 5 mg/kg/day, Av 5 mg/kg/day. In kind it is in vivo. From the text: A Bleomycin (BLM)-induced lung fibrosis mouse model was used, and the timelines of operation and drug delivery are depicted in FIG. 11A. […] The hydroxyproline content, serving as a marker of collagen deposition, was extracted from the right lobe and analyzed; the results are shown in FIG. 11C. FIG. 11D depicts histological analysis derived from the left lobe, quantifying the fibrotic area through staining with Masson's Trichrome and Picrosirius red, respectively.
8-to-10-week-old male WT (C57BL/6) mice received intratracheal instillation of bleomycin (bleocin; Nippon Kayaku) at the dose of 3 mg/kg diluted in PBS or PBS only (sham). To study fibrosis, lung samples were collected on day 21 for further analysis.
Lung function was assessed using the flexi Vent system (Scireq, Montreal, QC, Canada). Mice were tracheostomized and ventilated at a rate of 150 breaths/min, tidal volume of 10 ml/kg, and a positive end-expiratory pressure (PEEP) of 2-3 cmH2O. A deep inflation perturbation was used to estimate the inspiratory capacity (IC). Pressure-Volume loops were generated by constant increasing pressure, followed by regular decreasing pressure. Other lung function parameters like resistance, compliance, and elastance were measured by using SnapShot-150.
Levels of hydroxyproline in lung tissues were measured using the Hydroxyproline Colorimetric Assay kit (BioVision, Milpitas, CA, USA). Briefly, 10 mg of frozen right middle lobes homogenized in 100 μL of hydrochloric acid (HCl, 12 N), and hydrolyzed at 120° C. for 3 h. Then, 10 μL of individual samples were used to quantify the absorbance at 560 nm. Hydroxyproline content was presented in μg per lobe.
Mouse left lungs were fixed overnight in 4% paraformaldehyde (PFA), embedded in paraffin, and sectioned in 5 μm thickness for picrosirius red (Abcam, Cambridge, UK) and Masson's trichrome staining (Sigma Aldrich, MO, USA). Measurement of fibrotic area was quantified using ImageJ software (NIH, http://rsbweb.nih.gov/ij/).
The efficacy of WRG-28 and Av in treating pulmonary fibrosis was examined in vivo using a BLM-induced pulmonary fibrosis mouse model for evaluation. 50 μL of Bleomycin (BLM, 3 mg/kg) or PBS were introduced by intratracheal instillation on day 0 to induce fibrosis or serve as the control group, respectively. This was followed by the administration of various compounds for 14 days (Nintedanib: 60 mg/kg/day, WRG-28:5 mg/kg/day, Av: 5 mg/kg/day). Lung function evaluation was conducted on day 21 (FIG. 11A). Nintedanib, an FDA-approved drug for idiopathic pulmonary fibrosis (IPF) treatment, was used as the positive control. The results of the lung function evaluation are depicted in FIG. 11B. […] The degree of these changes can be reversed through treatment with Nintedanib, WRG-28 or Av. […] Histological analysis was conducted through staining techniques to quantify the fibrotic area.

T1 sequence (Q96D31 whole entry): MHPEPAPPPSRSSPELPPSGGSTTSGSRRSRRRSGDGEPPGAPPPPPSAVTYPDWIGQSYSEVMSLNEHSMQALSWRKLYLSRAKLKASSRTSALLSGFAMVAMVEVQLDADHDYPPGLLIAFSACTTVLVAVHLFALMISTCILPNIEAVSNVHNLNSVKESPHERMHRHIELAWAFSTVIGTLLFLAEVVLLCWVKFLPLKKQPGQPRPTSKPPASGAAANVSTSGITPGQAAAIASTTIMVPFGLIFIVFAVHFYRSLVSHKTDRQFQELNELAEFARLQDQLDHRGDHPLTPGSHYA

For `CCNS(=O)(=O)c1ccc(COc2ccc3nc4ccc(=O)cc-4oc3c2)cc1` [WRG-28], the SOCE result in test [1] and in test [2] was “notably reduced” each time. Further, the “BLM-induced changes in lung function (capacity, compliance, resistance, elastance)” value in test [3] (day 21) is “reversed”. Further, the “fibrotic area (Masson's trichrome and Picrosirius Red staining)” value in test [3] (left lobe) is on record as “effectively reduces”. For the same compound, the “hydroxyproline content (degree of fibrosis)” value in test [3] (right lobe) is given as “inhibits the progression of fibrosis”.
